The values below come from ChEMBL document CHEMBL5137050, “Hematopoietic Progenitor Kinase 1 in Tumor Immunology: A Medicinal Chemistry Perspective” (J Med Chem, 2022).

Usually IC50 stands for the midpoint of a concentration-inhibition curve.

Experiment [1] concerns the target T1, Mitogen-activated protein kinase kinase kinase kinase 1 (Homo sapiens, UniProt Q92918). Put plainly: Inhibition of HPK1 (unknown origin) preincubated for 15 mins measured after 90 mins by ADP-Glo kinase assay. Background: ADP-Glo first removes unused ATP, then detects ADP through luciferase.
Experiment [2] addresses T1, Mitogen-activated protein kinase kinase kinase kinase 1. The experiment is described as follows: Inhibition of HPK1 in human Jurkat E6.1 cells assessed as inhibition of SLP76 phosphorylation treated for 4 hrs by HTRF assay. The format is cell-based. In general terms: TR-FRET usually uses a lanthanide donor and a delayed reading to cut background.
Experiment [3] shares this target. The experiment is described as follows: Inhibition of full-length phosphorylated HPK1 (unknown origin).
Experiment [4] deals with Tyrosine-protein kinase Lck (Homo sapiens, UniProt P06239). The experiment is described as follows: Inhibition of LCK (unknown origin).
Chain of Tyrosine-protein kinase Lck (P06239 whole entry): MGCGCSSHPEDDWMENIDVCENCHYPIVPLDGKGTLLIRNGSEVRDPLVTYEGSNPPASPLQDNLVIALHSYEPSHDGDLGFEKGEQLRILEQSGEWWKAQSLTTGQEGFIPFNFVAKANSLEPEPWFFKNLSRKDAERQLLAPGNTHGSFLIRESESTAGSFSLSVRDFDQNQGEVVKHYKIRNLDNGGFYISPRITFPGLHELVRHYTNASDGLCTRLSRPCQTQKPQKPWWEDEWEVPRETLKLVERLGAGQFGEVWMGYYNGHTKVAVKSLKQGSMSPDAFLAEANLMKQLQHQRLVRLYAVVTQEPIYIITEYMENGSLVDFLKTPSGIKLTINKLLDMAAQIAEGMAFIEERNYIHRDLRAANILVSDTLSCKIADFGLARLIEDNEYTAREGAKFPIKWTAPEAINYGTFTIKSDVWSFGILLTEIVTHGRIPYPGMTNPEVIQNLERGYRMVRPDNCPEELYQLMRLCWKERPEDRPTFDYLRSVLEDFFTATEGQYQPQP
For experiment [5], the target named is T1, Mitogen-activated protein kinase kinase kinase kinase 1. The experiment is described as follows: Inhibition of full-length unphosphorylated HPK1 (unknown origin) by scintillation proximity assay. Background: In a scintillation proximity assay essentially only radioactivity close to the scintillant gives light.
The target of experiment [6] is T2, Tyrosine-protein kinase ITK/TSK (Homo sapiens, UniProt Q08881).
T2 sequence (Q08881 whole entry): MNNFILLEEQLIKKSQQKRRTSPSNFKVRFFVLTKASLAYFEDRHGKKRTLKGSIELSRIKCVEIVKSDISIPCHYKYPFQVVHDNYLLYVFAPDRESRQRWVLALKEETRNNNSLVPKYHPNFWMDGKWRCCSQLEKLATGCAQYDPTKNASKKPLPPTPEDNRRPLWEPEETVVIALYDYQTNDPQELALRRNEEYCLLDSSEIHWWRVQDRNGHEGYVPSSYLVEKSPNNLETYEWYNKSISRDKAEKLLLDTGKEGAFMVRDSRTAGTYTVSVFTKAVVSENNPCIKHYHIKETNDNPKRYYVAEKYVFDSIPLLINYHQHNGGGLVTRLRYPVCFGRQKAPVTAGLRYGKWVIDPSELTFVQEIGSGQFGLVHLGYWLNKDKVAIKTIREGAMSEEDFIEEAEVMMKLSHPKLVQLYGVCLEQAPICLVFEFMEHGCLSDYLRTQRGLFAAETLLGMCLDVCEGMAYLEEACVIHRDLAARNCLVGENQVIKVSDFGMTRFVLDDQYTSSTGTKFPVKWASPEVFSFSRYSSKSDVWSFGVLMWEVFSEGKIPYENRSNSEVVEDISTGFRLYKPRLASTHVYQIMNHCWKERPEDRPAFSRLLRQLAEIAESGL
The experiment is described as follows: Inhibition of ITK (unknown origin).

In experiment [7] the target is T3, Tyrosine-protein kinase ZAP-70 (Homo sapiens, UniProt P43403).
T3 sequence (P43403 whole entry): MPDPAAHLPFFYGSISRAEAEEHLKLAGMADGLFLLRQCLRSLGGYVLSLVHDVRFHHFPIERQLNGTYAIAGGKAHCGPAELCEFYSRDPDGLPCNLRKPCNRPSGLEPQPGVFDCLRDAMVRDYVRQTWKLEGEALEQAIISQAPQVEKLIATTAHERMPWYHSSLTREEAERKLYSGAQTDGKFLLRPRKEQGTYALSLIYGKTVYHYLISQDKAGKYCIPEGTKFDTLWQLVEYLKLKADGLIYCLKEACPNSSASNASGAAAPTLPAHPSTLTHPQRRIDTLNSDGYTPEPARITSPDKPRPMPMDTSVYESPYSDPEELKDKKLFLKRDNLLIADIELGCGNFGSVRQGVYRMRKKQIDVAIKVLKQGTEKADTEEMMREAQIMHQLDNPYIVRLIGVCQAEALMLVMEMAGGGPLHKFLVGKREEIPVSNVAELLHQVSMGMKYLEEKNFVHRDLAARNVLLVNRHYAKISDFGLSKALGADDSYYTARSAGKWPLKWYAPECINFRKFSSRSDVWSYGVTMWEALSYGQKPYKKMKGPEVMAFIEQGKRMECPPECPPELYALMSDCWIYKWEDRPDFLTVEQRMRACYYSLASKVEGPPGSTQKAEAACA
Put plainly: Inhibition of ZAP70 (unknown origin).

Where only a bound is given, the exact number is not on record here.

T1 sequence (Q92918 whole entry): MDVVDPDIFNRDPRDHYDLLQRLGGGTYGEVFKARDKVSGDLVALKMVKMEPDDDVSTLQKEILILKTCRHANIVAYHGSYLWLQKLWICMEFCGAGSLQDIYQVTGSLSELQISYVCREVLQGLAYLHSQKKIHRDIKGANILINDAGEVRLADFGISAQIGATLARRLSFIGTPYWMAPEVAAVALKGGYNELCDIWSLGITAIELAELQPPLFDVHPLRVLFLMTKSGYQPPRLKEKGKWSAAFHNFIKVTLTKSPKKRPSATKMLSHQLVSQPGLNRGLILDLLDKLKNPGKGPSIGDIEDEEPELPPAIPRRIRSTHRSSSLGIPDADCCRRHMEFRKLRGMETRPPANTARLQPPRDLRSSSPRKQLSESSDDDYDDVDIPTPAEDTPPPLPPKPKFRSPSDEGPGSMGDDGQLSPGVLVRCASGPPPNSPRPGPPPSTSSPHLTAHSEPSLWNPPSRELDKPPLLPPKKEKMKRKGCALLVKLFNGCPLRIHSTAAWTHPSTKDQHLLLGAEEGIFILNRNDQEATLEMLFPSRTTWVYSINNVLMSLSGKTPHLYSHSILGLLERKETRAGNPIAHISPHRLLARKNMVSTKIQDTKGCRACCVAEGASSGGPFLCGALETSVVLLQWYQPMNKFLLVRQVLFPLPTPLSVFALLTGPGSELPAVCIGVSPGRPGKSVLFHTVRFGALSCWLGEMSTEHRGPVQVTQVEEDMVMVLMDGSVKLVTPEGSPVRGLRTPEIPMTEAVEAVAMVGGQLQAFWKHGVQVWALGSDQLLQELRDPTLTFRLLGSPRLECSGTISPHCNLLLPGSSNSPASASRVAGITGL

In the case of `CN1CCC(c2ncc(-c3cnc(N)c(OCc4cccc(C#CC(C)(C)O)c4)c3)s2)CC1`, the 50% inhibitory concentration (IC50) is less than 0.1 µM in experiment [1] and less than 1 µM in experiment [2].
Turning to `Cc1[nH]c2nnc(C)n2c(=O)c1CC(=O)Nc1ncc(Cc2ccccc2F)s1`, the IC50 was 29 µM in experiment [3]; greater than 49.5 µM in experiment [4]; 1.2 µM in experiment [5]; greater than 49.5 µM in experiment [6]; greater than 49.5 µM in experiment [7].
